Assay results as given in patent US11505580B2, “Leech polypeptide and use thereof” (priority 2019, dated 2022).
Where no end group is shown, it is not given here.

Key:
Assay type in all cases: cell-based
IL-6 = experiment: ELISA of IL-6 secretion by macrophages RAW264.7; settings: 0-800 μg/mL
Source text: (§1) The effect of HE-D on the secretion of IL-1, IL-6, IL-12, and TNF-α by macrophages RAW264.7 was detected by ELISA.

macrophages RAW264.7 = experiment: Transwell migration assay, LPS-induced macrophage RAW264.7 migration; settings: 800 μg/mL, 1 μg/mL LPS
Source text: In this example, a leech zymolyte HE was firstly prepared from […] by enzymolysis. […] Then, HE was separated and purified by chromatography on QSepharose FF strong basic anion exchange column, and chromatography on Superdex30, Superdexpeptide and G10 gel column, and Transwell assay was done to track the activity. Finally leech polypeptide HE4-1 having activity to inhibit the migration of macrophages RAW264.7 was obtained. Transwell migration assay was used to detect the activity of HE1-HE6 in inhibiting the macrophage migration. […] Transwell assay was used to detect the inhibition of HE-D on the migration activity of macrophages RAW264.7. The experiments were divided into five groups, including a blank control group, an LPS model group and 200, 400, 800 μg/mL HE-D groups.

macrophage RAW264.7 [1] = experiment: Lysozyme activity assay; settings: 0-800 μg/mL
Protocol: (§2) The effects of HE-D on the phagocytosis ability and lysozyme activity of macrophage RAW264.7 were measured by neutral red phagocytosis test and lysozyme activity assay.

p38 = experiment: Western-blot of p38 signaling pathway in LPS-induced RAW264.7 cells; settings: RAW264.7 induced with LPS
Protocol: (§3) The mechanism of HE-D inhibiting macrophages RAW264.7 was tested by Western-blot.

IL-12 = experiment: ELISA of IL-12 secretion by macrophages RAW264.7; settings: 0-800 μg/mL
Source text: as §1

JNK = experiment: Western-blot of JNK signaling pathway in LPS-induced RAW264.7 cells; settings: RAW264.7 induced with LPS
Protocol: as §3

macrophage RAW264.7 [2] = experiment: Neutral red phagocytosis test; settings: 0-800 μg/mL
Protocol: as §2

TNF-α = experiment: ELISA of TNF-α secretion by macrophages RAW264.7; settings: 400 and 800 μg/mL
Source text: as §1

IL-1 = experiment: ELISA of IL-1 secretion by macrophages RAW264.7; settings: 0-800 μg/mL
Source text: as §1

Sequence	secretion of IL-6 (IL-6)	inhibition rate of LPS-induced migration of macrophages RAW264.7 (macrophages RAW264.7)	lysozyme activity of macrophages RAW264.7 (macrophage RAW264.7 [1])	LPS-induced increase in expression level of phosphorylated p38 protein (p38; 800 μg/mL)	expression of total p38 protein (p38)	secretion of IL-12 (IL-12)	LPS-induced increase in expression level of phosphorylated JNK protein (JNK; 800 μg/mL)	expression of JNK protein (JNK)	phagocytosis ability of macrophages RAW264.7 (macrophage RAW264.7 [2])	promotion effect on secretion of TNF-α (TNF-α)	secretion of TNF-α (TNF-α)	secretion of IL-1 (IL-1)
EAGSAKELEGDPVAG [HE-D]	no significant effect	14.9%	no obvious effect	significantly inhibit the increase	no significant effect	no significant effect	significantly inhibit the increase	no significant effect	no obvious effect	11.4%	promote the secretion	no significant effect
EAGSAKELEGDPVAG [HE4-1, leech polypeptide isolated and purified from HE4 by Superdex30, Superdexpeptide and G10 gel chromatography]		15.2%										
